Assay results from US20230085307A1, “PYRIDAZINONE COMPOUND AND HERBICIDE” (NISSAN CHEMICAL CORPORATION, priority 2019, published 2023).

Legend:
redroot pigweed [1] = assay: Test Example 5: herbicidal effect by foliage application, plastic box (Table 20, symbol N); format: in vivo, redroot pigweed (Amaranthus retroflexus); details: evaluated three weeks after application
Procedure, shortened: (§1)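 Post-emergence foliar test in sterilized diluvial soil. Compound applied as water-diluted emulsion at a predetermined rate to 14-day-old plants; evaluation at three weeks.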

Italian ryegrass [2] = assay: Test Example 5: herbicidal effect by foliage application, plastic box (Table 20, symbol K); format: in vivo, Italian ryegrass (Lolium multiflorum); details: evaluated three weeks after application
Procedure, shortened: as §1

windgrass [3] = assay: Test Example 5: herbicidal effect by foliage application, plastic box (Table 20, symbol L); format: in vivo, windgrass (Apera spica-venti); details: foliage application, 320 g/ha, evaluated three weeks after application
Procedure, shortened: as §1

rice flat sedge = assay: Test Example 3: herbicidal effect by foliage application, Wagner pot (Table 18, symbol E); format: in vivo, rice flat sedge (Cyperus iria)
Procedure, shortened: (§2)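 Plants were sown in alluvial soil held under 0.1–0.5 cm standing water and grown 14 days in a greenhouse at 25–30 °C. An emulsifiable formulation, water-diluted to the set dose, was then sprayed onto the foliage, and effects were scored three weeks later using previously defined criteria.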

lambsquarters [4] = assay: Test Example 4: herbicidal effect by soil treatment (Table 19, symbol O); format: in vivo, lambsquarters (Chenopodium album)
Procedure, shortened: (§3)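 Emulsion of test compound, water-diluted to predetermined amount, sprayed on soil after sowing (seed depth ~1.5 cm, sterilized diluvial soil). Greenhouse, 25–30° C. Effect graded at three weeks post-spray.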

chickweed [5] = assay: Test Example 5: herbicidal effect by foliage application, plastic box (Table 20, symbol P); format: in vivo, common chickweed (Stellaria media); details: evaluated three weeks after application
Procedure, shortened: as §1

windgrass [6] = assay: Test Example 4: herbicidal effect by soil treatment (Table 19, symbol L); format: in vivo, windgrass (Apera spica-venti)
Procedure, shortened: as §3

wild oat [7] = assay: Test Example 5: herbicidal effect by foliage application, plastic box (Table 20, symbol I); format: in vivo, wild oat (Avena fatua); details: evaluated three weeks after application
Procedure, shortened: as §1

barnyard grass [8] = assay: Test Example 3: herbicidal effect by foliage application, Wagner pot (Table 18, symbol H); format: in vivo, barnyard grass (Echinochloa crus-galli)
Procedure, shortened: as §2

green foxtail [9] = assay: Test Example 5: herbicidal effect by foliage application, plastic box (Table 20, symbol G); format: in vivo, green foxtail (Setaria viridis); details: evaluated three weeks after application
Procedure, shortened: as §1

persian speedwell [10] = assay: Test Example 4: herbicidal effect by soil treatment (Table 19, symbol R); format: in vivo, Persian speedwell (Veronica persica)
Procedure, shortened: as §3

barnyard grass [11] = assay: Test Example 4: herbicidal effect by soil treatment (Table 19, symbol H); format: in vivo, barnyard grass (Echinochloa crus-galli)
Procedure, shortened: as §3

Italian ryegrass [12] = assay: Test Example 4: herbicidal effect by soil treatment (Table 19, symbol K); format: in vivo, Italian ryegrass (Lolium multiflorum)
Procedure, shortened: as §3

redroot pigweed [13] = assay: Test Example 4: herbicidal effect by soil treatment (Table 19, symbol N); format: in vivo, redroot pigweed (Amaranthus retroflexus)
Procedure, shortened: as §3

green foxtail [14] = assay: Test Example 4: herbicidal effect by soil treatment (Table 19, symbol G); format: in vivo, green foxtail (Setaria viridis)
Procedure, shortened: as §3

persian speedwell [15] = assay: Test Example 5: herbicidal effect by foliage application, plastic box (Table 20, symbol R); format: in vivo, Persian speedwell (Veronica persica); details: evaluated three weeks after application
Procedure, shortened: as §1

blackgrass [16] = assay: Test Example 4: herbicidal effect by soil treatment (Table 19, symbol J); format: in vivo, blackgrass (Alopecurus myosuroides)
Procedure, shortened: as §3

velvetleaf [17] = assay: Test Example 4: herbicidal effect by soil treatment (Table 19, symbol M); format: in vivo, velvetleaf (Abutilon theophrasti)
Procedure, shortened: as §3

lambsquarters [18] = assay: Test Example 5: herbicidal effect by foliage application, plastic box (Table 20, symbol O); format: in vivo, lambsquarters (Chenopodium album); details: foliage application, 320 g/ha, evaluated three weeks after application
Procedure, shortened: as §1

barnyard grass [19] = assay: Test Example 5: herbicidal effect by foliage application, plastic box (Table 20, symbol H); format: in vivo, barnyard grass (Echinochloa crus-galli); details: evaluated three weeks after application
Procedure, shortened: as §1

Chinese sprangletop = assay: Test Example 3: herbicidal effect by foliage application, Wagner pot (Table 18, symbol D); format: in vivo, chinese sprangletop (Leptochloa chinensis)
Procedure, shortened: as §2

wild oat [20] = assay: Test Example 4: herbicidal effect by soil treatment (Table 19, symbol I); format: in vivo, wild oat (Avena fatua)
Procedure, shortened: as §3

velvetleaf [21] = assay: Test Example 5: herbicidal effect by foliage application, plastic box (Table 20, symbol M); format: in vivo, velvetleaf (Abutilon theophrasti); details: evaluated three weeks after application
Procedure, shortened: as §1

blackgrass [22] = assay: Test Example 5: herbicidal effect by foliage application, plastic box (Table 20, symbol J); format: in vivo, blackgrass (Alopecurus myosuroides); details: evaluated three weeks after application
Procedure, shortened: as §1

southern crabgrass [23] = assay: Test Example 5: herbicidal effect by foliage application, plastic box (Table 20, symbol F); format: in vivo, southern crabgrass (Digitaria ciliaris); details: evaluated three weeks after application
Procedure, shortened: as §1

southern crabgrass [24] = assay: Test Example 4: herbicidal effect by soil treatment (Table 19, symbol F); format: in vivo, southern crabgrass (Digitaria ciliaris)
Procedure, shortened: as §3

chickweed [25] = assay: Test Example 4: herbicidal effect by soil treatment (Table 19, symbol P); format: in vivo, common chickweed (Stellaria media); details: amount of applied herbicide 272 g/ha
Procedure, shortened: as §3

[26] = amount of applied herbicide 320 g/ha
[27] = amount of applied herbicide 272 g/ha, foliage application after 14-day growth
[28] = amount of applied herbicide 272 g/ha

CCCC(=O)Oc1c(C)nn(C)c(=O)c1-c1c(-c2cccc(OC(C)C)c2)sc2ccc(F)cc12 [2-216]
herbicidal effect on N: redroot pigweed (criteria 0-5) (redroot pigweed [1]; foliage application, 320 g/ha): 5 (Herbicidal rate of 90% or more (almost completely withered)) | herbicidal effect on K: Italian ryegrass (criteria 0-5) (Italian ryegrass [2]; foliage application, 320 g/ha): 4 (Herbicidal rate of 70% or more and less than 90%) | herbicidal effect on L: windgrass (criteria 0-5) (windgrass [3]): 3 (Herbicidal rate of 40% or more and less than 70%) | herbicidal effect on E: rice flat sedge (rice flat sedge; [26]): 4 (Herbicidal rate of 70% or more and less than 90%) | O: lambsquarters, herbicidal effect rating (lambsquarters [4]; [26]): 0 (Herbicidal rate of 5% or less (almost no effect)) | herbicidal effect on P: chickweed (criteria 0-5) (chickweed [5]; foliage application, 320 g/ha): 5 (Herbicidal rate of 90% or more (almost completely withered)) | L: windgrass, herbicidal effect rating (windgrass [6]; [26]): 0 (Herbicidal rate of 5% or less (almost no effect)) | herbicidal effect on I: wild oat (criteria 0-5) (wild oat [7]; foliage application, 320 g/ha): 0 (Herbicidal rate of 5% or less (almost no effect)) | herbicidal effect on H: barnyard grass (barnyard grass [8]; [26]): 5 (Herbicidal rate of 90% or more (almost completely withered)) | herbicidal effect on G: green foxtail (criteria 0-5) (green foxtail [9]; foliage application, 320 g/ha): 5 (Herbicidal rate of 90% or more (almost completely withered)) | R: persian speedwell, herbicidal effect rating (persian speedwell [10]; [26]): 5 (Herbicidal rate of 90% or more (almost completely withered)) | H: barnyard grass, herbicidal effect rating (barnyard grass [11]; [26]): 2 (Herbicidal rate of 20% or more and less than 40%) | K: Italian ryegrass, herbicidal effect rating (Italian ryegrass [12]; [26]): 4 (Herbicidal rate of 70% or more and less than 90%) | N: redroot pigweed, herbicidal effect rating (redroot pigweed [13]; [26]): 3 (Herbicidal rate of 40% or more and less than 70%) | G: green foxtail, herbicidal effect rating (green foxtail [14]; [26]): 2 (Herbicidal rate of 20% or more and less than 40%) | herbicidal effect on R: persian speedwell (criteria 0-5) (persian speedwell [15]; foliage application, 320 g/ha): 5 (Herbicidal rate of 90% or more (almost completely withered)) | J: blackgrass, herbicidal effect rating (blackgrass [16]; [26]): 0 (Herbicidal rate of 5% or less (almost no effect)) | M: velvetleaf, herbicidal effect rating (velvetleaf [17]; [26]): 2 (Herbicidal rate of 20% or more and less than 40%) | herbicidal effect on O: lambsquarters (criteria 0-5) (lambsquarters [18]): 3 (Herbicidal rate of 40% or more and less than 70%) | herbicidal effect on H: barnyard grass (criteria 0-5) (barnyard grass [19]; foliage application, 320 g/ha): 4 (Herbicidal rate of 70% or more and less than 90%) | herbicidal effect on D: Chinese sprangletop (Chinese sprangletop; [26]): 3 (Herbicidal rate of 40% or more and less than 70%) | I: wild oat, herbicidal effect rating (wild oat [20]; [26]): 0 (Herbicidal rate of 5% or less (almost no effect)) | herbicidal effect on M: velvetleaf (criteria 0-5) (velvetleaf [21]; foliage application, 320 g/ha): 3 (Herbicidal rate of 40% or more and less than 70%) | herbicidal effect on J: blackgrass (criteria 0-5) (blackgrass [22]; foliage application, 320 g/ha): 0 (Herbicidal rate of 5% or less (almost no effect)) | herbicidal effect on F: southern crabgrass (criteria 0-5) (southern crabgrass [23]; foliage application, 320 g/ha): 5 (Herbicidal rate of 90% or more (almost completely withered)) | F: southern crabgrass, herbicidal effect rating (southern crabgrass [24]; [26]): 3 (Herbicidal rate of 40% or more and less than 70%)

CCCC(=O)Oc1c(C)nn(C)c(=O)c1-c1c(-c2ccccc2OC(F)F)sc2cc(F)c(F)cc12 [5-022]
Herbicidal effect by foliage application, N: redroot pigweed (redroot pigweed [1]; [27]): 5 (Herbicidal rate of 90% or more (almost completely withered)) | Herbicidal effect by foliage application, K: Italian ryegrass (Italian ryegrass [2]; [27]): 0 (Herbicidal rate of 5% or less (almost no effect)) | herbicidal effect on rice flat sedge (E) (rice flat sedge; 272 g/ha): 3 (Herbicidal rate of 40% or more and less than 70%) | O: lambsquarters, herbicidal effect grade (lambsquarters [4]; [28]): 3 (Herbicidal rate of 40% or more and less than 70%) | Herbicidal effect by foliage application, P: chickweed (chickweed [5]; [27]): 5 (Herbicidal rate of 90% or more (almost completely withered)) | L: windgrass, herbicidal effect grade (windgrass [6]; [28]): 0 (Herbicidal rate of 5% or less (almost no effect)) | Herbicidal effect by foliage application, I: wild oat (wild oat [7]; [27]): 0 (Herbicidal rate of 5% or less (almost no effect)) | herbicidal effect on barnyard grass (H) (barnyard grass [8]; 272 g/ha): 4 (Herbicidal rate of 70% or more and less than 90%) | Herbicidal effect by foliage application, G: green foxtail (green foxtail [9]; [27]): 5 (Herbicidal rate of 90% or more (almost completely withered)) | R: persian speedwell, herbicidal effect grade (persian speedwell [10]; [28]): 3 (Herbicidal rate of 40% or more and less than 70%) | H: barnyard grass, herbicidal effect grade (barnyard grass [11]; [28]): 0 (Herbicidal rate of 5% or less (almost no effect)) | K: Italian ryegrass, herbicidal effect grade (Italian ryegrass [12]; [28]): 0 (Herbicidal rate of 5% or less (almost no effect)) | N: redroot pigweed, herbicidal effect grade (redroot pigweed [13]; [28]): 4 (Herbicidal rate of 70% or more and less than 90%) | G: green foxtail, herbicidal effect grade (green foxtail [14]; [28]): 3 (Herbicidal rate of 40% or more and less than 70%) | P: chickweed, herbicidal effect grade (chickweed [25]): 3 (Herbicidal rate of 40% or more and less than 70%) | Herbicidal effect by foliage application, R: persian speedwell (persian speedwell [15]; [27]): 4 (Herbicidal rate of 70% or more and less than 90%) | J: blackgrass, herbicidal effect grade (blackgrass [16]; [28]): 0 (Herbicidal rate of 5% or less (almost no effect)) | M: velvetleaf, herbicidal effect grade (velvetleaf [17]; [28]): 3 (Herbicidal rate of 40% or more and less than 70%) | Herbicidal effect by foliage application, H: barnyard grass (barnyard grass [19]; [27]): 3 (Herbicidal rate of 40% or more and less than 70%) | herbicidal effect on Chinese sprangletop (D) (Chinese sprangletop; 272 g/ha): 3 (Herbicidal rate of 40% or more and less than 70%) | I: wild oat, herbicidal effect grade (wild oat [20]; [28]): 0 (Herbicidal rate of 5% or less (almost no effect)) | Herbicidal effect by foliage application, M: velvetleaf (velvetleaf [21]; [27]): 5 (Herbicidal rate of 90% or more (almost completely withered)) | Herbicidal effect by foliage application, J: blackgrass (blackgrass [22]; [27]): 1 (Herbicidal rate of 5% or more and less than 20%) | Herbicidal effect by foliage application, F: southern crabgrass (southern crabgrass [23]; [27]): 4 (Herbicidal rate of 70% or more and less than 90%) | F: southern crabgrass, herbicidal effect grade (southern crabgrass [24]; [28]): 1 (Herbicidal rate of 5% or more and less than 20%)
